Laboratory results reported in US7183267B2, “β-lactamase inhibitors and methods of use thereof” (priority 2003, dated 2007).

What was measured:
[1] = target: β-lactamase M69I (Escherichia coli, UniProt P62593, M67I); test: Isothermal titration calorimetry, binding enthalpy, M69I mutant
Protocol: (§1) The binding of the compounds of the present invention to β-lactamase was also measured by isothermal titration calorimetry.
(§2) These experiments, in combination with the inhibition assays, indicate that the compounds identified in this disclosure bind to the wild type as well as drug resistant beta lactamases with favorable binding enthalpies. This is a very important characteristic from the point of view of further optimization since it facilitates the achievement of extremely high affinities and low susceptibilities to drug resistant mutations and naturally occurring polymorphisms.
(§3) Isothermal titration calorimetry was performed on a high-precision VP-ITC titration calorimeter (Microcal Inc., Northampton, Mass.). β-Lactamase solutions were titrated with inhibitors in 50 mM sodium phosphate, 2% DMSO, pH 7.0, with β-lactamase concentrations ranging from 15 to 25 μM and inhibitor concentrations ranging from 300 to 1000 μM. The heat evolved from each injection was obtained by integrating the calorimetric signal. Heat of binding was obtained as the difference between the heat of reaction and the heat of inhibitor dilution. Data were analyzed using Origin 7.0 (OriginLab Corporation, Northampton, Mass.).

[2] = target: β-lactamase E104K (Escherichia coli, UniProt P62593, E102K); test: Isothermal titration calorimetry, binding enthalpy, E104K mutant
Protocol: as §1, §2, §3

[3] = test system: methicillin resistant S. aureus ATCC 33591 (MRSA-ATCC); test: Matrix system: oxacillin plus β-lactamase inhibitor, MRSA-ATCC; format: cell-based; conditions: for MIC of oxacillin: matrix study
Protocol: To each well of a 96 well microtiter plate was added 47.5 μl of MHB. A volume of 2.5 μl of each dilution of oxacillin was then transferred to appropriate wells containing the medium. All wells, except the sterility control wells, were then inoculated with 50 μl of a diluted cell suspension to give a final volume of 100 μl and a final cell density of 5×10^4 CFU/well. The volume in the sterility control wells was adjusted to 100 μl with MHB. A sterile pipette tip was used to mix the contents of each well (one tip was used going from the low to the high concentration in the same column). The microtiter plates were covered with the lids and were placed in large Stratagene Big Blue plates (Cat. # 400041). Four large kimwipes moistened with tap water were placed near the edges of the Stratagene plates to prevent evaporation of the medium. The microtiter plates were incubated for at least 24 hours at 35° C. The plates were then evaluated for growth in each well. Controls included: medium sterility and negative control (medium and bacteria only).
A numerical code was used to evaluate the extent of growth as indicated below. • 0: absence of growth • 1: barely visible (faint) growth • 2: fair growth but less than the negative solvent control • 3: growth is equivalent to the negative solvent control.
The lowest dose at which no visible growth is observed was determined to be the MIC value.
The effect of the four compounds of the present invention on oxacillin resistance of the MRSA strains was determined using a matrix system. The β-lactamase inhibitors were tested at 5 doses against up to eleven concentrations of oxacillin. […] A 96-well microtiter plate was used for the matrix system. The procedure was identical to that described above for the MIC determination, with the exception that both oxacillin and one each of the β-lactamase inhibitors was added, 2.5 μl each, to the wells prior to addition of the test organisms.
Matrix Study:Oxacillin and Compound FL201 with MRSA-ATCC
Matrix Study: Oxacillin and Compound Fl202 with MRSA-ATCC

[4] = target: β-lactamase wt (Escherichia coli, UniProt P62593); test: Isothermal titration calorimetry, binding enthalpy, wild type
Protocol: as §1, §2, §3

[5] = target: TEM-1 β-lactamase (Escherichia coli, UniProt P62593); test: TEM-1 β-lactamase inhibition assay (nitrocefin hydrolysis, 486 nm); format: biochemical; conditions: Ki, 25° C., 50 mM sodium phosphate, 5% DMSO, pH 7.0; enzyme 5 nM, nitrocefin 167 μM
Method in brief: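 TEM-1 activity followed by nitrocefin hydrolysis at 486 nm, 25 °C, 50 mM sodium phosphate pH 7.0, 5% DMSO; inhibitor preincubated with enzyme 10 min before substrate. Ki obtained from rates at increasing inhibitor concentrations fitted to competitive-inhibition equations; penicillin G also used as substrate for KM and kcat.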

SMILES: O=C(OCc1ccccc1)c1cc(B(O)O)cc([N+](=O)[O-])c1 [Compound F1201]
- ΔH M69I [1]: -2.4 kcal/mol
- ΔH E104K [2]: -3.5 kcal/mol
- MIC of oxacillin ([3]; with compound 1 μg/ml): 16 µg/mL
- MIC of oxacillin ([3]; with compound 2 μg/ml): 2 µg/mL
- MIC of oxacillin ([3]; with compound 4 μg/ml): 0.5 µg/mL
- MIC of oxacillin ([3]; with compound 8 μg/ml): <0.064 µg/mL
- extent of growth (numerical code) ([3]; oxacillin 0 μg/ml + compound 1 μg/ml): 3
- extent of growth (numerical code) ([3]; oxacillin 0 μg/ml + compound 2 μg/ml): 3
- extent of growth (numerical code) ([3]; oxacillin 0 μg/ml + compound 4 μg/ml): 2
- extent of growth (numerical code) ([3]; oxacillin 0 μg/ml + compound 8 μg/ml): 1
- extent of growth (numerical code) ([3]; oxacillin 0 μg/ml + compound 16 μg/ml): 0
- extent of growth (numerical code) ([3]; oxacillin 0.064 μg/ml + compound 1 μg/ml): 1
- extent of growth (numerical code) ([3]; oxacillin 0.064 μg/ml + compound 2 μg/ml): 1
- extent of growth (numerical code) ([3]; oxacillin 0.064 μg/ml + compound 4 μg/ml): 1
- extent of growth (numerical code) ([3]; oxacillin 0.064 μg/ml + compound 8 μg/ml): 0
- extent of growth (numerical code) ([3]; oxacillin 0.064 μg/ml + compound 16 μg/ml): 0
- extent of growth (numerical code) ([3]; oxacillin 0.125 μg/ml + compound 1 μg/ml): 1
- extent of growth (numerical code) ([3]; oxacillin 0.125 μg/ml + compound 2 μg/ml): 1
- extent of growth (numerical code) ([3]; oxacillin 0.125 μg/ml + compound 4 μg/ml): 1
- extent of growth (numerical code) ([3]; oxacillin 0.125 μg/ml + compound 8 μg/ml): 0
- extent of growth (numerical code) ([3]; oxacillin 0.125 μg/ml + compound 16 μg/ml): 0
- extent of growth (numerical code) ([3]; oxacillin 0.25 μg/ml + compound 1 μg/ml): 1
- extent of growth (numerical code) ([3]; oxacillin 0.25 μg/ml + compound 2 μg/ml): 1
- extent of growth (numerical code) ([3]; oxacillin 0.25 μg/ml + compound 4 μg/ml): 1
- extent of growth (numerical code) ([3]; oxacillin 0.25 μg/ml + compound 8 μg/ml): 0
- extent of growth (numerical code) ([3]; oxacillin 0.25 μg/ml + compound 16 μg/ml): 0
- extent of growth (numerical code) ([3]; oxacillin 0.5 μg/ml + compound 1 μg/ml): 1
- extent of growth (numerical code) ([3]; oxacillin 0.5 μg/ml + compound 2 μg/ml): 1
- extent of growth (numerical code) ([3]; oxacillin 0.5 μg/ml + compound 4 μg/ml): 0
- extent of growth (numerical code) ([3]; oxacillin 0.5 μg/ml + compound 8 μg/ml): 0
- extent of growth (numerical code) ([3]; oxacillin 0.5 μg/ml + compound 16 μg/ml): 0
- extent of growth (numerical code) ([3]; oxacillin 1 μg/ml + compound 1 μg/ml): 1
- extent of growth (numerical code) ([3]; oxacillin 1 μg/ml + compound 2 μg/ml): 1
- extent of growth (numerical code) ([3]; oxacillin 1 μg/ml + compound 4 μg/ml): 0
- extent of growth (numerical code) ([3]; oxacillin 1 μg/ml + compound 8 μg/ml): 0
- extent of growth (numerical code) ([3]; oxacillin 1 μg/ml + compound 16 μg/ml): 0
- extent of growth (numerical code) ([3]; oxacillin 2 μg/ml + compound 1 μg/ml): 1
- extent of growth (numerical code) ([3]; oxacillin 2 μg/ml + compound 2 μg/ml): 0
- extent of growth (numerical code) ([3]; oxacillin 2 μg/ml + compound 4 μg/ml): 0
- extent of growth (numerical code) ([3]; oxacillin 2 μg/ml + compound 8 μg/ml): 0
- extent of growth (numerical code) ([3]; oxacillin 2 μg/ml + compound 16 μg/ml): 0
- extent of growth (numerical code) ([3]; oxacillin 4 μg/ml + compound 1 μg/ml): 1
- extent of growth (numerical code) ([3]; oxacillin 4 μg/ml + compound 2 μg/ml): 0
- extent of growth (numerical code) ([3]; oxacillin 4 μg/ml + compound 4 μg/ml): 0
- extent of growth (numerical code) ([3]; oxacillin 4 μg/ml + compound 8 μg/ml): 0
- extent of growth (numerical code) ([3]; oxacillin 4 μg/ml + compound 16 μg/ml): 0
- extent of growth (numerical code) ([3]; oxacillin 8 μg/ml + compound 1 μg/ml): 1
- extent of growth (numerical code) ([3]; oxacillin 8 μg/ml + compound 2 μg/ml): 0
- extent of growth (numerical code) ([3]; oxacillin 8 μg/ml + compound 4 μg/ml): 0
- extent of growth (numerical code) ([3]; oxacillin 8 μg/ml + compound 8 μg/ml): 0
- extent of growth (numerical code) ([3]; oxacillin 8 μg/ml + compound 16 μg/ml): 0
- extent of growth (numerical code) ([3]; oxacillin 16 μg/ml + compound 1 μg/ml): 0
- extent of growth (numerical code) ([3]; oxacillin 16 μg/ml + compound 2 μg/ml): 0
- extent of growth (numerical code) ([3]; oxacillin 16 μg/ml + compound 4 μg/ml): 0
- extent of growth (numerical code) ([3]; oxacillin 16 μg/ml + compound 8 μg/ml): 0
- extent of growth (numerical code) ([3]; oxacillin 16 μg/ml + compound 16 μg/ml): 0
- extent of growth (numerical code) ([3]; oxacillin 32 μg/ml + compound 1 μg/ml): 0
- extent of growth (numerical code) ([3]; oxacillin 32 μg/ml + compound 2 μg/ml): 0
- extent of growth (numerical code) ([3]; oxacillin 32 μg/ml + compound 4 μg/ml): 0
- extent of growth (numerical code) ([3]; oxacillin 32 μg/ml + compound 8 μg/ml): 0
- extent of growth (numerical code) ([3]; oxacillin 32 μg/ml + compound 16 μg/ml): 0
- extent of growth (numerical code) ([3]; oxacillin 64 μg/ml + compound 1 μg/ml): 0
- extent of growth (numerical code) ([3]; oxacillin 64 μg/ml + compound 2 μg/ml): 0
- extent of growth (numerical code) ([3]; oxacillin 64 μg/ml + compound 4 μg/ml): 0
- extent of growth (numerical code) ([3]; oxacillin 64 μg/ml + compound 8 μg/ml): 0
- extent of growth (numerical code) ([3]; oxacillin 64 μg/ml + compound 16 μg/ml): 0
- ΔH wt [4]: -3.2 kcal/mol
- Ki [5]: 27 µM
